Source: paper PMC12471299, “Secondary Metabolites of the Marine Sponge-Derived Fungus Aspergillus subramanianii 1901NT-1.40.2 and Their Antimicrobial and Anticancer Activities” (Marine Drugs, 2025)
≈ marks a conversion by molar mass, not a printed value. Where “and” joins values, the source holds several entries; their conditions need not be identical. Identical values can stand only once. Like-named read-outs stand apart in the source and are kept apart here.

Legend:
[1] = tested on: vancomycin-resistant enterococci strains; design: method as in PMID 29642369; details: cited from earlier work
HepG2 cells = tested on: HepG2 cells; design: method as in PMID 29642369; details: HepG2, at 100 µM; cited from earlier work
[2] = tested on: Escherichia coli VKPM (B-7935); assay: Antimicrobial assay, growth inhibition (optical density); type: cell-based; details: E. coli, 18 h
Outline: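 Compound tested from 100 µM downward; 1% DMSO in PBS as negative control. Planktonic growth read as OD at 620 nm after 18 h; 18 h biofilm formation quantified with MTT at 570 nm. Values as percent of control, reported as minimal concentration giving 50% reduction (MIC50).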

Candida albicans KMM 455 = assay: Biofilm formation assay (MTT); type: cell-based; details: C. albicans, 18 h
Outline: (§1)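 Cultures grown 24 h at 37 °C on Mueller Hinton agar; compound applied at concentrations of 100 µM and below. After 18 h, growth read at OD620 and biofilm via MTT at OD570; results expressed as percent of 1% DMSO/PBS control and given as MIC50.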

[3] = tested on: Escherichia coli VKPM (B-7935); assay: Biofilm formation assay (MTT); type: cell-based; details: E. coli, 18 h
Outline: as §1

A375 cells = tested on: A375 cells; design: method as in PMID 29642369; details: A375, at 100 µM; cited from earlier work
MCF-7 cells [4] = tested on: MCF-7 cells; design: method as in PMID 29642369; details: cited from earlier work
A549 cells = tested on: A549 cells; design: method as in PMID 29642369; details: A549, at 100 µM; cited from earlier work
HCT116 cells = tested on: HCT116 cells; design: method as in PMID 29642369; details: HCT116, at 100 µM; cited from earlier work
[5] = Competitive assay with 4-hydroxytamoxifen (MTT viability); type: cell-based; details: human
Protocol: Since estrogen-dependent breast cancer MCF-7 cells were proposed to be more sensitive to compound 8, the estrogen receptor (ER) dependence of petromurin C (8) cytotoxicity to estrogen-dependent MCF-7 cells was investigated using 4-hydroxytamoxifen (4-OHT) as an ERs antagonist. MCF-7 cells were pretreated with 4-OHT at a nontoxic concentration of 0.1 µM for 1 h, and 8 at 10 µM was added for 48 h. The antagonist of estrogenic receptors, 4-hydroxytamoxifen (Lumiprobe, Moscow, Russia), was dissolved in DMSO at a concentration of 10 mM and stored with protection from light. The probe was then added to the cells at a final concentration of 1 µM. The investigated compounds were added to the cells after 1 h. Then the viability of MCF-7 cells was measured after 48 h using MTT assay (Section 4.8.3).

MCF-7 cells [6] = assay: MCF-7 cell colony formation (clonogenic) assay; type: cell-based; details: Homo sapiens, MCF7, 240 h, 10 d
Protocol: The effect of the compound on colony formation by MCF-7 cells was assessed using a clonogenic assay. The concentration of MCF-7 cells was 0.33 × 10^3/mL. The cells were incubated for 10 d, fixed with methanol (25 min), stained with 0.5% crystal violet solution (25 min), and washed with PBS. The grown colonies were counted using a BIO-PRINT-Cx4 Edge-Fixed Pad-Container (Vilber, Collegien, France). The results are presented as colony inhibition compared to that of the control.

MCF-7 spheroids = assay: Three-dimensional culture of MCF-7 cells, spheroid area; type: cell-based, human
Protocol: The anticancer effect of petromurin C (8) was investigated using a 3D culture of MCF-7 cells (Figure 12). MCF-7 spheroids were formed in agarose microwells using MSLA-printed stamps. Compound 8 (10 µM and 20 µM) was added 24 h after the cells were seeded.
MCF-7 cell spheroids were formed in agarose microwells as described previously. Briefly, agarose (2.8%) heated to 60 °C was added to each well of a 96-well plate, and MSLA-printed stamps with microcylinders were inserted and then removed after agarose solidification. Each well contained 34 microwells with a diameter of 300 μm. MCF-7 cells at a concentration of 2 × 10^4 cells/well were added to each well and gently centrifuged to precipitate the cells that had gathered in the microwells. Petromurin C (8) was added after 24 h, and observations were performed daily using an MIB-2-FL fluorescence microscope (Lomo Microsystems, St. Petersburg, Russia) The spheroid area was calculated using CellProfiler software v. 4.2.8 [51, 52]. In total, at least 20 of the same spheroids in each variant were analyzed daily and data were calculated as mean ± SEM.

MCF-7 cells [7] = assay: Cell cycle investigation (propidium iodide, flow cytometry); type: cell-based, human
Protocol: After incubation, the cells were trypsinized, harvested, washed with PBS, and fixed with ice-cold 70% ethanol in a dropwise manner prior to storage at −20 °C overnight. The cells were then washed with PBS, incubated with 200 μg/mL RNAse (PanReac, AppliChem, Darmstadt, Germany) and 20 μg/mL of propidium iodide (Sigma-Aldrich, St. Louis, MO, USA) for 30 min at 37 °C, and DNA content was analyzed using a NovoCyte flow cytometer (Agilent, Austin, TX, USA). The proportion of cells in each cell cycle phase was expressed as a percentage.

SMILES: COC1=C(c2c[nH]c3ccccc23)C(=O)C(CC=C(C)C)=C(c2c[nH]c3ccccc23)C1=O [Compound 6, kumbicin D]
- antibacterial activity [1]: not active
- effect on cells (HepG2 cells): weak effects
- Growth inhibition, MIC50 [2]: 11.42 ± 1.02 µM
- MIC50 ([2]; Escherichia coli): 7 to 11 µM (≈ 3.06 to 4.8 µg/mL)
- Biofilm formation, MIC50 (Candida albicans KMM 455): 8.36 ± 0.95 µM
- Biofilm formation, MIC50 [3]: 10.34 ± 0.98 µM
- effect on cells (A375 cells): weak effects
- effect on cells (MCF-7 cells [4]; MCF-7, at 100 µM): weak effects
- effect on cells (A549 cells): weak effects
- effect on cells (HCT116 cells): weak effects

SMILES: COc1c(OC)c(-c2c[nH]c3ccc(O)cc23)c(OC)c(OC)c1-c1c[nH]c2ccccc12 [Compound 8, petromurin C]
- viability at 48 h, 10 µM ([5]; MCF-7 cells pretreated with 4-hydroxytamoxifen, 4-OHT 0.1 µM for 1 h, then 8 at 10 µM, read-out: viability of 4-OHT-pretreated MCF-7 cells): 84.4 ± 1.1%
- viability at 48 h, 10 µM ([5]; MCF-7 cells, 8 at 10 µM, no 4-OHT, read-out: viability of MCF-7 cells): 76.1 ± 1.6%
- inhibition at 5 µM (MCF-7 cells [6]; 5 µM): 16.8%
- inhibition at 10 µM (MCF-7 cells [6]; 10 µM): 20.4%
- decrease of spheroid area (MCF-7 spheroids; 10 µM, after 24 h): 19.1%
- decrease of spheroid area (MCF-7 spheroids; 10 µM, after 72 h): 28.9%
- decrease of spheroid area (MCF-7 spheroids; 20 µM, after 24 h): 29.8%
- decrease of spheroid area (MCF-7 spheroids; 20 µM, after 72 h): 32.6%
- decrease of the area of MCF-7 3D spheroids (MCF-7 spheroids; abstract, concentration and time not stated): approximately 30%
- Biofilm formation, MIC50 (Candida albicans KMM 455): 24.12 µM and 24.12 ± 3.07 µM
- Biofilm formation, MIC50 [3]: 83.01 µM and 83.01 ± 6.42 µM
- IC50 (MCF-7 cells [4]; MCF-7 cells, read-out: IC50, cell viability): 94.8 µM
- Cell Disturbance, G1 Phase (MCF-7 cells [7]; 1 h, 5 µM): 22.69 ± 0.42%
- Cell Disturbance, G2/M Phase (MCF-7 cells [7]; 1 h, 5 µM): 29.91 ± 1.95%
- Cell Disturbance, S Phase (MCF-7 cells [7]; 1 h, 5 µM): 45.52 ± 1.05%
- Cell Disturbance, G1 Phase (MCF-7 cells [7]; 1 h, 10 µM): 21.37 ± 2.18%
- Cell Disturbance, G2/M Phase (MCF-7 cells [7]; 1 h, 10 µM): 25.9% and 25.96 ± 0.62 %
- Cell Disturbance, S Phase (MCF-7 cells [7]; 1 h, 10 µM): 53.1% and 53.15 ± 1.53 %
- Cell Disturbance, G1 Phase (MCF-7 cells [7]; 3 h, 5 µM): 26.2% and 26.20 ± 1.17 %
- Cell Disturbance, G2/M Phase (MCF-7 cells [7]; 3 h, 5 µM): 17.2% and 17.20 ± 1.23 %
- Cell Disturbance, S Phase (MCF-7 cells [7]; 3 h, 5 µM): 56.6% and 56.60 ± 1.25 %
- Cell Disturbance, G1 Phase (MCF-7 cells [7]; 3 h, 10 µM): 33.82 ± 0.98%
- Cell Disturbance, G2/M Phase (MCF-7 cells [7]; 3 h, 10 µM): 14.9% and 14.95 ± 1.08 %
- Cell Disturbance, S Phase (MCF-7 cells [7]; 3 h, 10 µM): 51.8% and 51.79 ± 0.86 %
